{"source": "patent US20240368174A1", "about": "“Antiviral Heterocyclic Compounds” (Enanta Pharmaceuticals, Inc., priority 2023, published 2024)", "data": [{"test_system": "HMPV clinical isolate A2 strain TN 94-49", "test": "HMPV antiviral assay, Method 1 (LLC-MK2 cells, ATP-Lite)", "assay_type": "cell-based", "settings": "human metapneumovirus, hMPV A2 TN/94-49, LLC-MK2 cells", "summary_of_the_method": "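EC50 derived by four-parameter logistic fit of percent cell health, measured as ATP-Lite luminescence after 7 days at 37° C, 5% CO2. Compounds tested as 10-point 2.5-fold dilutions starting at 2 μM against TN 94-49 virus (MOI 0.005) in LLC-MK2 cells seeded at 5,000/well, infection medium containing 2 μg/mL TPCK-trypsin, serum-free.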", "units": {"EC50": "nM"}, "values": [{"smiles": "C[C@]1(C(N)=O)COc2c1cc([C@@](O)(CNC(=O)c1cc(OCCO)c3nn(C4CC4)cc3c1)C1CC1)nc2-c1ccc(F)c(Cl)c1F", "note": "[Example 37]", "EC50": "> 500"}, {"smiles": "COc1cc(C(=O)NC[C@@](O)(c2ccccc2)c2cc3c(c(-c4cc(Cl)c(F)cc4F)n2)OC[C@]3(C)C(N)=O)cc2oc(C3CC3)nc12", "note": "[Example 85]", "EC50": "< 500"}, {"smiles": "COc1cc(C(=O)NC[C@@](O)(c2ccc(F)cc2)c2cc3c(c(-c4cc(Cl)c(F)cc4F)n2)OC[C@]3(C)C(N)=O)cc2cn(C3(F)CC3)nc12", "note": "[Example 14]", "EC50": "< 500"}, {"smiles": "Cc1cnc2c(OC3CC3)cc(C(=O)NC[C@@](O)(c3ccccc3)c3cc4c(c(-c5cc(Cl)c(F)cc5F)n3)OC[C@]4(C)C(N)=O)cc2c1", "note": "[Example 182]", "EC50": "< 500"}, {"smiles": "COc1cc(C(=O)NC[C@@](O)(c2ccccc2)c2cc3c(c(-c4cccc(Cl)c4Cl)n2)OC[C@]3(C)C(N)=O)cc2cn(C3(F)CC3)nc12", "note": "[Example 262]", "EC50": "< 500"}, {"smiles": "C[C@]1(C(N)=O)COc2c1cc([C@@](O)(CNC(=O)c1cc(OC3CC3)c3nn(C(F)F)cc3c1)c1ccc(F)cc1)nc2-c1ccc2c(c1Cl)OC(F)(F)O2", "note": "[Example 265]", "EC50": "< 500"}, {"smiles": "COc1cc(C(=O)NC[C@@](O)(c2ccccc2)c2cc3c(c(-c4cc(Cl)c(F)cc4F)n2)OC[C@]3(C)C(N)=O)cc2cc(C)nnc12", "note": "[Example 89]", "EC50": "< 500"}, {"smiles": "COc1cc(C(=O)NC[C@@](O)(c2cccc(F)c2)c2cc3c(c(-c4cc(Cl)c(F)cc4F)n2)OC[C@]3(C)C(N)=O)cc2cc(C3CC3)nn12", "note": "[Example 133]", "EC50": "< 500"}, {"smiles": "COc1cc(C(=O)NC[C@@](O)(c2ccccc2)c2cc3c(c(-c4ccc(F)c(Cl)c4Cl)n2)OC[C@]3(C)C(N)=O)cc2cc(C3CC3)nnc12", "note": "[Example 290]", "EC50": "< 500"}, {"smiles": "COc1cccc([C@](O)(CNC(=O)c2cc(OC)c3nn(C4CC4)cc3c2)c2cc3c(c(-c4cc(Cl)c(F)cc4F)n2)OC[C@]3(C)C(N)=O)c1", "note": "[Example 160]", "EC50": "< 500"}, {"smiles": "COc1cc(C(=O)NC[C@@](O)(c2cccc(F)c2)c2cc3c(c(-c4ccc(F)c(Cl)c4Cl)n2)OC[C@]3(C)C(N)=O)cc2oc(C3CC3)nc12", "note": "[Example 280]", "EC50": "< 500"}, {"smiles": "COc1cc(C(=O)NC[C@@](O)(c2ccccc2)c2cc3c(c(-c4ccc(F)c(Cl)c4Cl)n2)OC[C@]3(C)C(N)=O)cc2cc(Cl)cnc12", "note": "[Example 294]", "EC50": "< 500"}, {"smiles": "COc1cc(C(=O)NC[C@@](O)(c2ccccc2)c2cc3c(c(-c4cc(Cl)ccc4F)n2)OC[C@]3(C)C(N)=O)cc2cn(C3CC3)nc12", "note": "[Example 144]", "EC50": "< 500"}, {"smiles": "COc1cc(C(=O)NC[C@@](O)(c2ccccc2)c2cc3c(c(-c4ccc(F)c(Cl)c4Cl)n2)OC[C@]3(C)C(N)=O)cc2cc(C)nnc12", "note": "[Example 289]", "EC50": "< 500"}, {"smiles": "C[C@]1(C(N)=O)COc2c1cc([C@@](O)(CNC(=O)c1cc(OC3CC3)c3nn(C4(F)CC4)cc3c1)c1ccccc1)nc2-c1cccc(Cl)c1Cl", "note": "[Example 266]", "EC50": "< 500"}, {"smiles": "COc1cc(C(=O)NC[C@](O)(c2cc3c(c(-c4cc(F)c(F)cc4F)n2)OC[C@]3(C)C(N)=O)C2CC(F)(F)C2)cc2cn(C(F)F)nc12", "note": "[Example 33]", "EC50": "> 500"}, {"smiles": "COc1cc(C(=O)NC[C@@](O)(c2ccccc2)c2cc3c(c(-c4ccc(F)c(Cl)c4Cl)n2)OC[C@]3(C)C(N)=O)cc2oc(C)nc12", "note": "[Example 277]", "EC50": "< 500"}, {"smiles": "C[C@]1(C(N)=O)COc2c1cc([C@@](O)(CNC(=O)c1cc(OC3CC3)c3nn(C4(F)CC4)cc3c1)C1CC1)nc2-c1cc(Cl)c(F)cc1F", "note": "[Example 5]", "EC50": "< 500"}, {"smiles": "COc1cc(C(=O)NC[C@@](O)(c2ccccc2)c2cc3c(c(-c4cc(Cl)c(F)cc4F)n2)OC[C@]3(C)C(N)=O)cc2cn(C3(F)CC3)nc12", "note": "[Example 158]", "EC50": "< 500"}, {"smiles": "COc1cc(C(=O)NC[C@@](O)(c2ccc(F)cc2)c2cc3c(c(-c4ccc5c(c4Cl)OC(F)(F)O5)n2)OC[C@]3(C)C(N)=O)cc2cn(C(F)F)nc12", "note": "[Example 264]", "EC50": "< 500"}, {"smiles": "COc1cc(C(=O)NC[C@@](O)(c2ccccc2)c2cc3c(c(-c4cc(Cl)ccc4F)n2)OC[C@]3(C)C(N)=O)cc2cc(C3CC3)nn12", "note": "[Example 146]", "EC50": "< 500"}, {"smiles": "COc1cc(C(=O)NC[C@](O)(c2cc3c(c(-c4cc(Cl)c(F)cc4F)n2)OC[C@]3(C)C(N)=O)c2cccs2)cc2cn(C3CC3)nc12", "note": "[Example 474]", "EC50": "< 500"}]}, {"test_system": "HMPV clinical isolate A2 strain TN 94-49", "test": "HMPV antiviral assay, Method 2 (LLC-MK2 cells with CP-100-356, ATP-Lite)", "assay_type": "cell-based", "settings": "human metapneumovirus; hMPV A2 TN/94-49, LLC-MK2 cells with CP-100-356, Method 2", "summary_of_the_method": "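EC50 comes from a four-parameter fit of percent cell viability (ATP-Lite, normalized to virus-only and cell-only wells) after 7 days at 37 °C. Infection used HMPV A2 TN 94-49 at MOI 0.16 in LLC-MK2 cells, with 2 μM P-gp inhibitor CP-100-356 and 2 μg/mL TPCK-trypsin final; dose range 200 nM top, 2.5-fold, 10 points, duplicate.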", "units": {"EC50": "nM"}, "values": [{"smiles": "C[C@]1(C(N)=O)COc2c1cc([C@@](O)(CNC(=O)c1cc(OCCO)c3nn(C4CC4)cc3c1)C1CC1)nc2-c1ccc(F)c(Cl)c1F", "note": "[Example 37]", "EC50": "< 200"}, {"smiles": "COc1cc(C(=O)NC[C@@](O)(c2ccccc2)c2cc3c(c(-c4cc(Cl)c(F)cc4F)n2)OC[C@]3(C)C(N)=O)cc2oc(C3CC3)nc12", "note": "[Example 85]", "EC50": "< 200"}, {"smiles": "COc1cc(C(=O)NC[C@@](O)(c2ccc(F)cc2)c2cc3c(c(-c4cc(Cl)c(F)cc4F)n2)OC[C@]3(C)C(N)=O)cc2cn(C3(F)CC3)nc12", "note": "[Example 14]", "EC50": "< 200"}, {"smiles": "Cc1cnc2c(OC3CC3)cc(C(=O)NC[C@@](O)(c3ccccc3)c3cc4c(c(-c5cc(Cl)c(F)cc5F)n3)OC[C@]4(C)C(N)=O)cc2c1", "note": "[Example 182]", "EC50": "< 200"}, {"smiles": "COc1cc(C(=O)NC[C@@](O)(c2ccccc2)c2cc3c(c(-c4cccc(Cl)c4Cl)n2)OC[C@]3(C)C(N)=O)cc2cn(C3(F)CC3)nc12", "note": "[Example 262]", "EC50": "< 200"}, {"smiles": "C[C@]1(C(N)=O)COc2c1cc([C@@](O)(CNC(=O)c1cc(OC3CC3)c3nn(C(F)F)cc3c1)c1ccc(F)cc1)nc2-c1ccc2c(c1Cl)OC(F)(F)O2", "note": "[Example 265]", "EC50": "< 200"}, {"smiles": "COc1cc(C(=O)NC[C@@](O)(c2ccccc2)c2cc3c(c(-c4cc(Cl)c(F)cc4F)n2)OC[C@]3(C)C(N)=O)cc2cc(C)nnc12", "note": "[Example 89]", "EC50": "< 200"}, {"smiles": "COc1cc(C(=O)NC[C@@](O)(c2cccc(F)c2)c2cc3c(c(-c4cc(Cl)c(F)cc4F)n2)OC[C@]3(C)C(N)=O)cc2cc(C3CC3)nn12", "note": "[Example 133]", "EC50": "< 200"}, {"smiles": "COc1cc(C(=O)NC[C@@](O)(c2ccccc2)c2cc3c(c(-c4ccc(F)c(Cl)c4Cl)n2)OC[C@]3(C)C(N)=O)cc2cc(C3CC3)nnc12", "note": "[Example 290]", "EC50": "< 200"}, {"smiles": "COc1cccc([C@](O)(CNC(=O)c2cc(OC)c3nn(C4CC4)cc3c2)c2cc3c(c(-c4cc(Cl)c(F)cc4F)n2)OC[C@]3(C)C(N)=O)c1", "note": "[Example 160]", "EC50": "< 200"}, {"smiles": "COc1cc(C(=O)NC[C@@](O)(c2cccc(F)c2)c2cc3c(c(-c4ccc(F)c(Cl)c4Cl)n2)OC[C@]3(C)C(N)=O)cc2oc(C3CC3)nc12", "note": "[Example 280]", "EC50": "< 200"}, {"smiles": "COc1cc(C(=O)NC[C@@](O)(c2ccccc2)c2cc3c(c(-c4ccc(F)c(Cl)c4Cl)n2)OC[C@]3(C)C(N)=O)cc2cc(Cl)cnc12", "note": "[Example 294]", "EC50": "< 200"}, {"smiles": "COc1cc(C(=O)NC[C@@](O)(c2ccccc2)c2cc3c(c(-c4cc(Cl)ccc4F)n2)OC[C@]3(C)C(N)=O)cc2cn(C3CC3)nc12", "note": "[Example 144]", "EC50": "< 200"}, {"smiles": "COc1cc(C(=O)NC[C@@](O)(c2ccccc2)c2cc3c(c(-c4ccc(F)c(Cl)c4Cl)n2)OC[C@]3(C)C(N)=O)cc2cc(C)nnc12", "note": "[Example 289]", "EC50": "< 200"}, {"smiles": "C[C@]1(C(N)=O)COc2c1cc([C@@](O)(CNC(=O)c1cc(OC3CC3)c3nn(C4(F)CC4)cc3c1)c1ccccc1)nc2-c1cccc(Cl)c1Cl", "note": "[Example 266]", "EC50": "< 200"}, {"smiles": "COc1cc(C(=O)NC[C@](O)(c2cc3c(c(-c4cc(F)c(F)cc4F)n2)OC[C@]3(C)C(N)=O)C2CC(F)(F)C2)cc2cn(C(F)F)nc12", "note": "[Example 33]", "EC50": "< 200"}, {"smiles": "COc1cc(C(=O)NC[C@@](O)(c2ccccc2)c2cc3c(c(-c4ccc(F)c(Cl)c4Cl)n2)OC[C@]3(C)C(N)=O)cc2oc(C)nc12", "note": "[Example 277]", "EC50": "< 200"}, {"smiles": "C[C@]1(C(N)=O)COc2c1cc([C@@](O)(CNC(=O)c1cc(OC3CC3)c3nn(C4(F)CC4)cc3c1)C1CC1)nc2-c1cc(Cl)c(F)cc1F", "note": "[Example 5]", "EC50": "< 200"}, {"smiles": "COc1cc(C(=O)NC[C@@](O)(c2ccccc2)c2cc3c(c(-c4cc(Cl)c(F)cc4F)n2)OC[C@]3(C)C(N)=O)cc2cn(C3(F)CC3)nc12", "note": "[Example 158]", "EC50": "< 200"}, {"smiles": "COc1cc(C(=O)NC[C@@](O)(c2ccc(F)cc2)c2cc3c(c(-c4ccc5c(c4Cl)OC(F)(F)O5)n2)OC[C@]3(C)C(N)=O)cc2cn(C(F)F)nc12", "note": "[Example 264]", "EC50": "< 200"}, {"smiles": "COc1cc(C(=O)NC[C@@](O)(c2ccccc2)c2cc3c(c(-c4cc(Cl)ccc4F)n2)OC[C@]3(C)C(N)=O)cc2cc(C3CC3)nn12", "note": "[Example 146]", "EC50": "< 200"}, {"smiles": "COc1cc(C(=O)NC[C@](O)(c2cc3c(c(-c4cc(Cl)c(F)cc4F)n2)OC[C@]3(C)C(N)=O)c2cccs2)cc2cn(C3CC3)nc12", "note": "[Example 474]", "EC50": "< 200"}]}]}
